Measurements published in ChEMBL document CHEMBL1201862, “PubChem BioAssay data set” (2004).
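Tested at 5 concentrations; 48 h exposure; 96-well plates; endpoints linearly interpolated, else capped at highest concentration. GI50: concentration for 50% inhibition of growth.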 Active and inactive are the calls of the source. Cut-off read from the data, not from the text of the source: active = GI50 up to about 1.1 µM and inactive = higher.

Experiments:
Experiment in all cases: growth of human tumour cells (NCI), 48 h
SF-539 = system: SF-539
NCI-H460 = system: NCI-H460
SK-MEL-2 = system: SK-MEL-2
PC-3 = system: PC-3
U-251 = system: U-251
OVCAR-5 = system: OVCAR-5
HCC 2998 = system: HCC 2998
K562 = system: K562
COLO 205 = system: COLO 205
CAKI-1 = system: CAKI-1
T47D = system: T47D
UACC-62 = system: UACC-62
RXF 393 = system: RXF 393
Malme-3M = system: Malme-3M
A549 = system: A549
SK-MEL-28 = system: SK-MEL-28
MOLT-4 = system: MOLT-4
SNB-19 = system: SNB-19
MDA-N = system: MDA-N
KM12 = system: KM12
MDA-MB-435 = system: MDA-MB-435
SR = system: SR
SK-MEL-5 = system: SK-MEL-5
EKVX = system: EKVX
HCT-116 = system: HCT-116
CCRF-CEM = system: CCRF-CEM
Hs-578T = system: Hs-578T
OVCAR-4 = system: OVCAR-4
BT-549 = system: BT-549
NCI-H522 = system: NCI-H522
HT-29 = system: HT-29
ACHN = system: ACHN
SW-620 = system: SW-620
M14 = system: M14
MCF7 = system: MCF7
NCI-H226 = system: NCI-H226
RPMI-8226 = system: RPMI-8226
UO-31 = system: UO-31
UACC-257 = system: UACC-257
DU-145 = system: DU-145
NCI/ADR-RES = system: NCI/ADR-RES
HOP-62 = system: HOP-62
IGROV-1 = system: IGROV-1
A498 = system: A498
HOP-92 = system: HOP-92
LOX IMVI = system: LOX IMVI
SF-268 = system: SF-268
SNB-75 = system: SNB-75
NCI-H23 = system: NCI-H23
TK-10 = system: TK-10
HCT-15 = system: HCT-15
OVCAR-8 = system: OVCAR-8
HL-60 = system: HL-60
SN12C = system: SN12C
786-0 = system: 786-0
MDA-MB-231 = system: MDA-MB-231
OVCAR-3 = system: OVCAR-3

Measured: GI50

NC(=O)Nc1ccc(C(=O)NCCCNC(=O)c2ccc(NC(N)=O)cc2)cc1
> 100 µM: HCT-15
inactive: SF-539 > 100 µM | NCI-H460 > 100 µM | SK-MEL-2 > 100 µM | PC-3 > 100 µM | U-251 > 100 µM | OVCAR-5 > 100 µM | HCC 2998 > 100 µM | K562 > 100 µM | COLO 205 > 100 µM | CAKI-1 > 100 µM | T47D > 100 µM | UACC-62 > 100 µM | RXF 393 > 100 µM | Malme-3M > 100 µM | A549 > 100 µM | SK-MEL-28 > 100 µM | MOLT-4 > 100 µM | SNB-19 > 100 µM | MDA-N > 100 µM | KM12 > 100 µM | MDA-MB-435 > 100 µM | SR > 100 µM | SK-MEL-5 > 100 µM | EKVX > 100 µM | HCT-116 > 100 µM | CCRF-CEM > 100 µM | Hs-578T > 100 µM | OVCAR-4 > 100 µM | BT-549 > 100 µM | NCI-H522 > 100 µM | HT-29 > 100 µM | ACHN > 100 µM | SW-620 > 100 µM | M14 > 100 µM | MCF7 > 100 µM | NCI-H226 > 100 µM | RPMI-8226 > 100 µM | UO-31 > 100 µM | UACC-257 > 100 µM | DU-145 > 100 µM | NCI/ADR-RES > 100 µM | HOP-62 > 100 µM | IGROV-1 > 100 µM | A498 > 100 µM | HOP-92 > 100 µM | LOX IMVI > 100 µM | SF-268 > 100 µM | SNB-75 > 100 µM | NCI-H23 > 100 µM | TK-10 > 100 µM | OVCAR-8 > 100 µM | HL-60 > 100 µM

O=c1c(C(c2cnc3ccccc3c2)c2c(O)oc3ccccc3c2=O)c(O)oc2ccccc12
inactive: NCI-H460 27.6 µM | SK-MEL-2 47.2 µM | PC-3 48.5 µM | U-251 29 µM | SN12C 25.5 µM | K562 35.4 µM | COLO 205 60.7 µM | CAKI-1 41.3 µM | T47D > 100 µM | UACC-62 17.6 µM | Malme-3M 35.2 µM | 786-0 44.5 µM | MDA-MB-231 92.7 µM | SK-MEL-28 25.9 µM | MOLT-4 27.7 µM | SNB-19 23.2 µM | MDA-N 21.4 µM | KM12 37.4 µM | MDA-MB-435 36.3 µM | SK-MEL-5 57.8 µM | EKVX 99.3 µM | HCT-116 30.3 µM | CCRF-CEM 55.1 µM | Hs-578T 22.4 µM | OVCAR-4 33.7 µM | BT-549 20.7 µM | NCI-H522 36.1 µM | HT-29 33.4 µM | SW-620 29.6 µM | NCI-H226 23.1 µM | RPMI-8226 29 µM | UO-31 29.4 µM | UACC-257 37.3 µM | DU-145 > 100 µM | NCI/ADR-RES > 100 µM | HOP-62 46.5 µM | IGROV-1 > 100 µM | OVCAR-3 91.8 µM | A498 92.5 µM | HOP-92 20.2 µM | LOX IMVI 40.1 µM | SF-268 23.8 µM | SNB-75 13.5 µM | NCI-H23 41.7 µM | TK-10 49.4 µM | OVCAR-8 33 µM | HL-60 37.8 µM
44.6 µM: HCT-15
